Test results as given in US20070049564A1 (Wyeth, priority 2005, published 2007).
≈ marks a conversion by molar mass, not a printed value. Like-named read-outs stand apart in the source and are kept apart here.

What was measured:
E. coli GC 2231 = experiment: MIC, broth microdilution; settings: Escherichia coli
E. coli GC 2235 = experiment: MIC, broth microdilution; settings: Escherichia coli
E. coli GC 2233 = experiment: MIC, broth microdilution; settings: Escherichia coli
Description: (§1) Antimicrobial susceptibility testing. The in vitro activities of the antibiotics are determined by the broth microdilution method as recommended by the National Committee for Clinical Laboratory Standards (NCCLS) (1). Mueller-Hinton II broth (MHBII)(BBL Cockeysville, Md.) is the medium employed in the testing procedures. Microtiter plates containing serial dilutions of each antimicrobial agent are inoculated with each organism to yield the appropriate density (10^5 CFU/ml) in a 100 μl final volume. The plates are incubated for 18-22 hours at 35° C. in ambient air.
Representative compounds were first incubated in mouse serum for an hour prior to the in vitro testing against a panel of selected gram-positive and gram-negative bacteria strains. All compounds were also pre-incubated in water for an hour prior to testing as control.

E. coli GC 2270 = experiment: MIC, broth microdilution; settings: Escherichia coli
Description: as §1
(§2) Representative compounds were first incubated in mouse serum for an hour prior to the in vitro testing against a panel of selected gram-positive and gram-negative bacteria strains. All compounds were also pre-incubated in water for an hour prior to testing as control. Representative compounds of Formula I were incubated in human serum prior to MIC determination.

E. coli GC 4560 = experiment: MIC, broth microdilution; settings: Escherichia coli
E. coli GC 6465 = experiment: MIC, broth microdilution; settings: Escherichia coli
E. coli GC 1073 = experiment: MIC, broth microdilution; settings: Escherichia coli
S. typhimurium GC 2172 = experiment: MIC, broth microdilution; settings: Salmonella enterica, TYPHIMURIUM
S. aureus GC 6466 = experiment: MIC, broth microdilution; settings: Staphylococcus aureus
S. aureus GC 6467 = experiment: MIC, broth microdilution; settings: Staphylococcus aureus
S. aureus GC 1079 = experiment: MIC, broth microdilution; settings: Staphylococcus aureus
Description: as §1, §2

S. aureus GC 4536 = experiment: MIC, broth microdilution; settings: Staphylococcus aureus
S. aureus GC 2216 = experiment: MIC, broth microdilution; settings: Staphylococcus aureus
S. aureus GC 6469 = experiment: MIC, broth microdilution; settings: Staphylococcus aureus
E. faecalis GC 2242 = experiment: MIC, broth microdilution; settings: Enterococcus faecalis
E. faecium GC 4556 = experiment: MIC, broth microdilution; settings: Enterococcus faecium
E. faecium GC 2243 = experiment: MIC, broth microdilution; settings: Enterococcus faecium
c. albicans GC 3066 = experiment: MIC, broth microdilution
E. coli = experiment: Range of MIC for E. coli strains; settings: Escherichia coli, 20 h, read-out: Range of MIC, E. coli (Mouse Serum)
Staph. = experiment: Range of MIC for Staph. strains, including MRSA; settings: Staphylococcus aureus

CCCCCCC(=O)OCOC(=O)N(CC(=O)Nc1cc(N(C)C)c2c(c1O)C(=O)C1=C(O)[C@]3(O)C(=O)C(C(N)=O)=C(O)[C@@H](N(C)C)[C@@H]3C[C@@H]1C2)C(C)(C)C [Example 48, ({[(2-{[(5aR,6aS,7S,10aS)-9-(aminocarbonyl)-4,7-bis(dimethylamino)-1,8,10a,11-tetrahydroxy-10,12-dioxo-5,5a,6,6a,7,10,10a,12-octahydrotetracen-2-yl]amino}-2-oxoethyl)(tert-butyl)amino]carbonyl}oxy)methyl heptanoate]
MIC (E. coli GC 2231; GC2231, read-out: MINIMAL INHIBITORY CONCENTRATION MIC, Human Serum): 16 µg/mL (≈ 20.7 µM) | MIC (E. coli GC 2231; GC2231, read-out: MINIMAL INHIBITORY CONCENTRATION MIC, Mouse Serum): 0.5 µg/mL (≈ 0.648 µM) | MIC (E. coli GC 2231; GC2231, read-out: MINIMAL INHIBITORY CONCENTRATION MIC, Water): 64 µg/mL (≈ 82.9 µM) | MIC (E. coli GC 2235; GC2235, read-out: MINIMAL INHIBITORY CONCENTRATION MIC, Human Serum): 16 µg/mL (≈ 20.7 µM) | MIC (E. coli GC 2235; GC2235, read-out: MINIMAL INHIBITORY CONCENTRATION MIC, Mouse Serum): 0.25 µg/mL (≈ 0.324 µM) | MIC (E. coli GC 2235; GC2235, read-out: MINIMAL INHIBITORY CONCENTRATION MIC, Water): 32 µg/mL (≈ 41.5 µM) | MIC (E. coli GC 2233; GC2233, read-out: MINIMAL INHIBITORY CONCENTRATION MIC, Human Serum): 16 µg/mL (≈ 20.7 µM) | MIC (E. coli GC 2233; GC2233, read-out: MINIMAL INHIBITORY CONCENTRATION MIC, Mouse Serum): 0.25 µg/mL (≈ 0.324 µM) | MIC (E. coli GC 2233; GC2233, read-out: MINIMAL INHIBITORY CONCENTRATION MIC, Water): 64 µg/mL (≈ 82.9 µM) | MIC (E. coli GC 2270; GC2270, read-out: MINIMAL INHIBITORY CONCENTRATION MIC, Human Serum): 16 µg/mL (≈ 20.7 µM) | MIC (E. coli GC 2270; GC2270, read-out: MINIMAL INHIBITORY CONCENTRATION MIC, Mouse Serum): 0.5 µg/mL (≈ 0.648 µM) | MIC (E. coli GC 2270; GC2270, read-out: MINIMAL INHIBITORY CONCENTRATION MIC, Water): 64 µg/mL (≈ 82.9 µM) | MIC (E. coli GC 4560; GC4560, read-out: MINIMAL INHIBITORY CONCENTRATION MIC, Human Serum): 1 µg/mL (≈ 1.3 µM) | MIC (E. coli GC 4560; GC4560, read-out: MINIMAL INHIBITORY CONCENTRATION MIC, Mouse Serum): 0.12 µg/mL (≈ 0.155 µM) | MIC (E. coli GC 4560; GC4560, read-out: MINIMAL INHIBITORY CONCENTRATION MIC, Water): 2 µg/mL (≈ 2.59 µM) | MIC (E. coli GC 6465; GC6465, read-out: MINIMAL INHIBITORY CONCENTRATION MIC, Human Serum): > 64 µg/mL | MIC (E. coli GC 6465; GC6465, read-out: MINIMAL INHIBITORY CONCENTRATION MIC, Mouse Serum): 2 µg/mL (≈ 2.59 µM) | MIC (E. coli GC 6465; GC6465, read-out: MINIMAL INHIBITORY CONCENTRATION MIC, Water): > 64 µg/mL | MIC (E. coli GC 1073; GC1073, read-out: MINIMAL INHIBITORY CONCENTRATION MIC, Human Serum): 32 µg/mL (≈ 41.5 µM) | MIC (E. coli GC 1073; GC1073, read-out: MINIMAL INHIBITORY CONCENTRATION MIC, Mouse Serum): 0.5 µg/mL (≈ 0.648 µM) | MIC (E. coli GC 1073; GC1073, read-out: MINIMAL INHIBITORY CONCENTRATION MIC, Water): 64 µg/mL (≈ 82.9 µM) | MIC (S. typhimurium GC 2172; read-out: MINIMAL INHIBITORY CONCENTRATION MIC, Human Serum): > 64 µg/mL | MIC (S. typhimurium GC 2172; read-out: MINIMAL INHIBITORY CONCENTRATION MIC, Mouse Serum): 4 µg/mL (≈ 5.18 µM) | MIC (S. typhimurium GC 2172; read-out: MINIMAL INHIBITORY CONCENTRATION MIC, Water): > 64 µg/mL | MIC (S. aureus GC 6466; GC6466, read-out: MINIMAL INHIBITORY CONCENTRATION MIC, Human Serum): 0.12 µg/mL (≈ 0.155 µM) | MIC (S. aureus GC 6466; GC6466, read-out: MINIMAL INHIBITORY CONCENTRATION MIC, Mouse Serum): 0.12 µg/mL (≈ 0.155 µM) | MIC (S. aureus GC 6466; GC6466, read-out: MINIMAL INHIBITORY CONCENTRATION MIC, Water): 0.12 µg/mL (≈ 0.155 µM) | MIC (S. aureus GC 6467; GC6467, read-out: MINIMAL INHIBITORY CONCENTRATION MIC, Human Serum): 0.5 µg/mL (≈ 0.648 µM) | MIC (S. aureus GC 6467; GC6467, read-out: MINIMAL INHIBITORY CONCENTRATION MIC, Mouse Serum): 1 µg/mL (≈ 1.3 µM) | MIC (S. aureus GC 6467; GC6467, read-out: MINIMAL INHIBITORY CONCENTRATION MIC, Water): 2 µg/mL (≈ 2.59 µM) | MIC (S. aureus GC 1079; GC1079, read-out: MINIMAL INHIBITORY CONCENTRATION MIC, Human Serum): 0.25 µg/mL (≈ 0.324 µM) | MIC (S. aureus GC 1079; GC1079, read-out: MINIMAL INHIBITORY CONCENTRATION MIC, Mouse Serum): 0.25 µg/mL (≈ 0.324 µM) | MIC (S. aureus GC 1079; GC1079, read-out: MINIMAL INHIBITORY CONCENTRATION MIC, Water): 1 µg/mL (≈ 1.3 µM) | MIC (S. aureus GC 4536; GC4536, read-out: MINIMAL INHIBITORY CONCENTRATION MIC, Human Serum): 0.25 µg/mL (≈ 0.324 µM) | MIC (S. aureus GC 4536; GC4536, read-out: MINIMAL INHIBITORY CONCENTRATION MIC, Mouse Serum): 0.25 µg/mL (≈ 0.324 µM) | MIC (S. aureus GC 4536; GC4536, read-out: MINIMAL INHIBITORY CONCENTRATION MIC, Water): 0.25 µg/mL (≈ 0.324 µM) | MIC (S. aureus GC 2216; GC2216, read-out: MINIMAL INHIBITORY CONCENTRATION MIC, Human Serum): 0.25 µg/mL (≈ 0.324 µM) | MIC (S. aureus GC 2216; GC2216, read-out: MINIMAL INHIBITORY CONCENTRATION MIC, Mouse Serum): 0.25 µg/mL (≈ 0.324 µM) | MIC (S. aureus GC 2216; GC2216, read-out: MINIMAL INHIBITORY CONCENTRATION MIC, Water): 0.5 µg/mL (≈ 0.648 µM) | MIC (S. aureus GC 6469; GC6469, read-out: MINIMAL INHIBITORY CONCENTRATION MIC, Human Serum): 1 µg/mL (≈ 1.3 µM) | MIC (S. aureus GC 6469; GC6469, read-out: MINIMAL INHIBITORY CONCENTRATION MIC, Mouse Serum): 0.5 µg/mL (≈ 0.648 µM) | MIC (S. aureus GC 6469; GC6469, read-out: MINIMAL INHIBITORY CONCENTRATION MIC, Water): 1 µg/mL (≈ 1.3 µM) | MIC (E. faecalis GC 2242; GC2242, read-out: MINIMAL INHIBITORY CONCENTRATION MIC, Human Serum): 1 µg/mL (≈ 1.3 µM) | MIC (E. faecalis GC 2242; GC2242, read-out: MINIMAL INHIBITORY CONCENTRATION MIC, Mouse Serum): 0.5 µg/mL (≈ 0.648 µM) | MIC (E. faecalis GC 2242; GC2242, read-out: MINIMAL INHIBITORY CONCENTRATION MIC, Water): 1 µg/mL (≈ 1.3 µM) | MIC (E. faecium GC 4556; GC4556, read-out: MINIMAL INHIBITORY CONCENTRATION MIC, Human Serum): 1 µg/mL (≈ 1.3 µM) | MIC (E. faecium GC 4556; GC4556, read-out: MINIMAL INHIBITORY CONCENTRATION MIC, Mouse Serum): 0.5 µg/mL (≈ 0.648 µM) | MIC (E. faecium GC 4556; GC4556, read-out: MINIMAL INHIBITORY CONCENTRATION MIC, Water): 1 µg/mL (≈ 1.3 µM) | MIC (E. faecium GC 2243; GC2243, read-out: MINIMAL INHIBITORY CONCENTRATION MIC, Human Serum): 0.25 µg/mL (≈ 0.324 µM) | MIC (E. faecium GC 2243; GC2243, read-out: MINIMAL INHIBITORY CONCENTRATION MIC, Mouse Serum): 0.25 µg/mL (≈ 0.324 µM) | MIC (E. faecium GC 2243; GC2243, read-out: MINIMAL INHIBITORY CONCENTRATION MIC, Water): 0.5 µg/mL (≈ 0.648 µM) | MIC (c. albicans GC 3066; Candida albicans, GC3066, read-out: MINIMAL INHIBITORY CONCENTRATION MIC): > 64 µg/mL | MINIMAL INHIBITORY CONCENTRATION MIC (c. albicans GC 3066; Human Serum): >64 UG/ML | MINIMAL INHIBITORY CONCENTRATION MIC (c. albicans GC 3066; Mouse Serum): >64 UG/ML | MIC (E. coli): 0.25 to 2 µg/mL (≈ 0.324 to 2.59 µM) | MIC (Staph.; MRSA, read-out: Range of MIC, Staph (Mouse Serum)): 0.12 to 2 µg/mL (≈ 0.155 to 2.59 µM) | MIC (Staph.; MRSA, read-out: Range of MIC, Staph (Water)): 0.12 to 2 µg/mL (≈ 0.155 to 2.59 µM) | MIC (Staph.; read-out: Minimum inhibitory concentration (MIC), Staph (Human Serum)): 0.12 to 2 µg/mL (≈ 0.155 to 2.59 µM) | MIC (Staph.; read-out: Minimum inhibitory concentration (MIC), Staph (Water)): 0.12 to 2 µg/mL (≈ 0.155 to 2.59 µM)
